In PMC3914206:

How the values were obtained:
panel of 442 kinases [1] = target: T1, panel of 442 kinases (Homo sapiens, UniProt O96017); format: binding; conditions: Compound Concentration 10 µM
T1 construct: purchased KINOMEscan
Text: (§1) We assessed the selectivity of members of this scaffold using the KINOMEscan methodology across a near comprehensive panel of 442 kinases [[18,27]].

panel of 442 kinases [2] = target: T2, panel of 442 kinases (Homo sapiens, UniProt Q86YV6); format: binding; conditions: Compound Concentration 10 µM
T2 construct: purchased KINOMEscan
T2 sequence (Q86YV6 1-388): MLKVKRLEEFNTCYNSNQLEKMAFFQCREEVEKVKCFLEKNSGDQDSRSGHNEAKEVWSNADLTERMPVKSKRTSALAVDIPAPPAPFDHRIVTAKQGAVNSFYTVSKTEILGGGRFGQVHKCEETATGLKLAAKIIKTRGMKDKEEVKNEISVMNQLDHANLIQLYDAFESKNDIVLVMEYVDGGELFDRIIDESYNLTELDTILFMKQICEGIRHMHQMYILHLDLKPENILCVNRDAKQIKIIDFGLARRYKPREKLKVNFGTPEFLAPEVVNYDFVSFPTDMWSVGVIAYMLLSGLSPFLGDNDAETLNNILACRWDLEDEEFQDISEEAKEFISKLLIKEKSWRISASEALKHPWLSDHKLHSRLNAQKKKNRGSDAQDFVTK
Text: as §1

T1 sequence (O96017 whole entry): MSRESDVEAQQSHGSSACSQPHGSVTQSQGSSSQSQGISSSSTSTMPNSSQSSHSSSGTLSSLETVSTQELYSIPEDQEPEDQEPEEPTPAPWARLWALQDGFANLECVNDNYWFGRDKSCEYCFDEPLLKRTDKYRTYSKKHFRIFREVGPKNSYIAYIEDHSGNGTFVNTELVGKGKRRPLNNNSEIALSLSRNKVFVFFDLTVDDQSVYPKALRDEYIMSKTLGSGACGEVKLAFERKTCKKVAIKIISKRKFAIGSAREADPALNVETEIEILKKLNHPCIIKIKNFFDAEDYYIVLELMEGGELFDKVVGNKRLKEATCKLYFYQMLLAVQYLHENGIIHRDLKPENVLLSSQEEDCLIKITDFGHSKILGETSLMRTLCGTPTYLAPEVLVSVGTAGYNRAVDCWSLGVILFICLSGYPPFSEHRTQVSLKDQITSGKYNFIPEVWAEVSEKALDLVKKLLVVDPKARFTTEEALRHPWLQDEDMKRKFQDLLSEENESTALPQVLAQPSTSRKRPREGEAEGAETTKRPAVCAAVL

Row | Structure (SMILES) | KINOMEscan: CHEK2 (panel of 442 kinases [1]) | KINOMEscan: MYLK4 (panel of 442 kinases [2])
1 | COc1cc(C(=O)N2CCC(N3CCN(C)CC3)CC2)ccc1Nc1ncc2c(n1)N(C1CCCC1)c1ccccc1C(=O)N2C [Compound 25, 11-cyclopentyl-2-((2-methoxy-4-(4-(4-methylpiperazin-1-yl)piperidine-1-carbonyl)phenyl)amino)-5-methyl-5H-benzo[e]pyrimido[5,4-b][1,4]diazepin-6(11H)-one] | 100 | 88
2 | COc1cc(C(=O)N2CCC(N3CCN(C)CC3)CC2)ccc1Nc1ncc2c(n1)N1CCc3cccc(c31)C(=O)N2C [Compound 24] | – | 78
3 | COc1cc(C(=O)N2CCC(N3CCN(C)CC3)CC2)ccc1Nc1ncc2c(n1)N(C)c1ccccc1C(=O)N2C [15 (LRRK2-IN-1)] | 66 | 80
4 | CCOc1cc(C(=O)N2CCC(N3CCN(C)CC3)CC2)ccc1Nc1ncc2c(n1)N(C1CCCC1)c1ccccc1C(=O)N2C [Compound 26] | 100 | 100
